Assay results published in US20220133753A1, “COMPOSITIONS AND METHODS USEFUL FOR TREATING DISEASES CHARACTERIZED BY INSUFFICIENT PANTOTHENATE KINASE ACTIVITY” (Comet Therapeutics, Inc., priority 2016, published 2022).

Legend:
[1] = system: conversion of CoA into 4′-phosphopantetheine in serum; type: biochemical; details: serum pre-treated with the agent, CoA 10 μM, 3 hours
Protocol: (PpanSH=4′-phosphopantetheine; in all panels CoA was added to the indicated sera with a final starting concentration of 10 μM measured by HPLC analysis and percentages relative to CoA incubation for 3 hours in PBS (=100%) are indicated on the y-axis).
Serum from various species (fetal calf, mouse and human) was pre-conditioned, and CoA conversion into 4′-phosphopantetheine was assessed. First, the effect of heat inactivation of the serum was studied. […] Second, the conversion of CoA to 4′-phosphopantetheine requires the hydrolysis of a phosphoanhydride bond, which is typically catalyzed by (pyro)phosphatases or hydrolases. The majority of enzymes in the known family of (pyro)phosphatases and hydrolases depend on metal ions for their activity. To test these candidates, EDTA was added to serum to chelate metal ions.

[2] = system: Drosophila w1118 control fly line; test: Drosophila HoPan toxicity and CoA rescue experiment (eclosion); type: in vivo; details: HoPan in the food during development
Text: Drosophila HoPan Toxicity and CoA Rescue Experiment: One week old w1118 flies (in the ratio 10 females and 5 males) were kept in vials containing standard fly food with or without HoPan and CoA at indicated concentrations. The flies were allowed to lay eggs for 2 days, after which the adults were discarded. The resulting offspring were allowed to develop. The numbers of flies which eclosed were counted to evaluate HoPan toxicity and CoA rescue efficiency.

[3] = system: HEK293 cells; test: HoPan treatment of mammalian HEK293 cells in combination with CoA or 4′-phosphopantetheine; type: cell-based, human; details: HoPan alone
Protocol: HoPan treatment of mammalian HEK293 Cells in combination with CoA and 4′-phosphopantetheine treatment: HEK293 cells were maintained in dMEM (Invitrogen) supplemented with 10% fetal calf serum (Gibco) and antibiotics (penicillin/streptomycin, Invitrogen). For HoPan treatment, cells were cultured in custom made dMEM without vitamin B5 (Thermo Scientific) supplemented with dialyzed FCS (Thermo Scientific). CoA or PPanSH was added to HEK293 cells for the final concentration of 25 uM, either in the presence or absence of HoPan (0.5 mM) for 4 days, followed by analysis for phenotype and rescue efficiency of CoA and PPanSH.
Western blot analysis and Antibodies: For Western blot analysis, cells were collected and washed with phosphate buffer saline (PBS), followed by centrifugation. The cells were lysed and sonicated in 1X Laemmli Sample Buffer and boiled for 5 min with 5% β-mercaptoethanol (Sigma). Protein content was determined using DC protein assay (BioRad). Equal amounts of protein were loaded on a 10 or 12.5% SDS-PAGE gel, transferred onto PVDF membranes and blocked with 5% milk in PBS/0.1% Tween, followed by overnight incubation with primary antibodies. The primary antibodies used were: rabbit-anti dPANK/fbl, 1:4000 Eurogentec custom made as described previously5, mouse anti-tubulin (Sigma Aldrich Cat no: T5168, 1:5000), anti-acetyl-Histone3 (Active Motif Cat no: 39139, 1:2000), anti GAPDH (Fitzgerald Cat no: 10R-G109a, 1:10000), rabbit anti COASY (Abcam Cat no: AB129012, 1:1000). Appropriate HRP-conjugated secondary antibodies (Amersham) were used and detection was performed using enhanced chemi-luminescence (Pierce cat nog: 32106) and Amersham hyperfilm (GE Healthcare). Band intensities were quantified with Image-studio software.

[4] = system: Drosophila S2 cells; test: HoPan treatment of Drosophila S2 cells in combination with CoA or 4′-phosphopantetheine; type: cell-based; details: HoPan alone
Protocol: HoPan treatment of Drosophila S2 Cell in combination with CoA or 4′-phosphopantetheine treatment: Drosophila Schneider's S2 cells were maintained at standard conditions as explained above. Cells in the exponential phase of growth were used for all the experiments. Different indicated concentrations of CoA or 4′-phosphopantetheine (deuterium labelled PPanSH(D4) or unlabeled PPanSH) were added to S2 cells either in the presence or absence of 0.5 mM HoPan (Zhou Fang Pharm Chemical, China) for 48 h. Similarly, Drosophila S2 cells were treated with different concentrations of PPanSH(D4) at either 25° C. or 4° C. and cells were then harvested at various time points to access transport of PPanSH(D4). Stable isotope labelled PPanSH containing 4 deuterium atoms was purchased from Syncom (Groningen, The Netherlands) as a sodium salt (chemical structure is provided in FIG. 13A). As a read out cell count, intracellular total CoA and PPanSH levels (both labelled and unlabeled levels wherever appropriate) and histone acetylation levels were analyzed as explained below.
Drosophila S2 Cell Immunofluorescence Staining: For immunofluorescence Drosophila S2 cells were seeded on Poly-L-Lysine coated (Sigma-Aldrich) glass microscope slides and allowed to settle for 45 min. Cells were fixed with 3.7% formaldehyde (Sigma Aldrich) for 20 min, washed briefly with PBS+0.1% Triton-X-100 (Sigma Aldrich) and permeabilized with PBS+0.2% Triton-X-100 for 20 min. The slides were incubated in primary antibody (rabbit anti-AcLys, Cell Signaling Cat No: 9441, 1:500) to visualize histone acetylation levels in PBS+0.1% Triton-X-100 overnight and after an additional washing step in PBS+0.1% Triton-X-100 they were incubated in secondary goat anti-rabbit-Alexa488 antibody (Molecular Probes) for two hours at room temperature (RT). F-actin was detected with Rhodamin-Phalloidin (20 U/ml)(Invitrogen) and DNA by staining with DAPI (0.2 ug/ml) (Thermo Scientific). Finally the samples were mounted in 80% glycerol and analyzed using a Leica fluorescence microscope with Leica software. Adobe Photoshop and Illustrator (Adobe Systems Incorporated, San Jose, Calif., USA) were used for image assembly.

[5] = system: primary human fibroblasts from healthy controls, MCAD deficiency and PA deficiency patients; test: Mitochondrial stress test (Seahorse), basal OCR of primary fibroblasts; type: cell-based; details: data not shown
Text: A study was thus performed to test the ability of S-acetyl-(S)-4′-phosphopantetheine to facilitate increased basal oxidative respiration in primary fibroblast cultures from patients diagnosed with MCAD deficiency and PA deficiency. Impaired metabolism were observed through functional measurements of respiration using a Seahorse XF Analyzer, where oxygen consumption rate (OCR) reflects oxidative respiration.
Patient derived cell lines were subject to a mitochondrial stress test according to standard protocol with a cell seeding density of 30 k cells/well (n=2) in glucose free media. After incubation with various concentrations of S-acetyl-4′-phosphopantetheine or vehicle for 24 h, rescue potential was assessed by increase in basal OCR (average of six readings between 30-70 min), relative to control: basal OCR from vehicle treatment was set to 1.0. […] Experiment was performed in two replicates: systematically outlying values caused by seeding errors, port failures, or values within background were excluded from analysis.

[6] = system: MCAD patient fibroblast cell lines; test: Mitochondrial stress test (Seahorse), reserve capacity of MCAD patient fibroblasts; type: cell-based, human; details: all cell lines, data not shown
Text: Medium-chain acyl-CoA dehydrogenase (MCAD) deficiency is a condition in which the body's capacity to break down fats with medium chain lengths is impaired, caused by mutations in the ACADM gene, which can lead to hypoglycaemia, and liver dysfunction. Left untreated, it can lead to seizures, coma and other serious health problems, with acute symptoms often preceded by extended periods of fasting or an infection with vomiting. Impaired metabolism were observed through functional measurements of respiration using a Seahorse XF Analyzer, where oxygen consumption rate (OCR) reflects oxidative respiration.
A study was performed to test the Rescue potential of S-acetyl-4′-phosphopantetheine in primary patient fibroblast model of MCAD deficiency. MCAD patient fibroblast cell lines (genotyped as containing homozygous K304E mutations in ACADM) were subject to a mitochondrial stress test according to standard protocol with a cell seeding density of 30 k cells/well (n=2). Rescue potential was assessed by increase in reserve capacity: defined as the difference between basal and maximal OCR, controlled by subtracting values for non-mitochondiral respiration (after rotenone treatment). The study was performed in two replicates.

[7] = Parallel Artificial Membrane Permeability Assay (PAMPA); type: in vitro ADME; details: PAMPA
Protocol: FIG. 13E is a depiction of a Parallel Artificial Membrane Permeability Assay (PAMPA). Experiments were performed according to the manufacturer's instructions. In this assay, a two-well system is separated by an artificial lipid-oil-lipid membrane (shown in grey). To the lower (donor) compartment, a compound dissolved in buffer is added, the upper (acceptor) compartment contains only buffer. After 5 hours of incubation, concentration of compound is measured in both wells to assess its propensity to diffuse over the artificial membrane. The permeability was calculated according to the manufacturer's instruction (formulas are depicted to the right). Compounds that are below the assay threshold are predicted to be unable to pass membranes passively, whereas compounds above the threshold are able to pass membranes passively. Ceq=Equilibrium Concentration, CD=Concentration in donor well, VD=Volume of donor well (0.3 ml), CA=Concentration in acceptor well, VA=Volume of acceptor well (0.2 ml), P=Permeability, S=Membrane area (0.3 cm2), t=Incubation time (18000 s).
PAMPA assay procedure: Parallel Artificial Membrane Permeability Assay (PAMPA) was performed and processed according to manufacturer's instructions (BD Gentest Pre-coated PAMPA plates). Briefly, two superimposed wells are separated by an artificial lipid-oil-lipid membrane. The compound of interest (PPanSH, CoA, caffeine, amiloride) was added to the bottom well in phosphate-buffered saline, whereas the top well was filled with phosphate-buffered saline alone. After 5 h of incubation at room temperature, concentrations of the different compounds were measured using UV-VIS absorption spectroscopy (BMG Labtech SPECTROstar Omega) along with calibration curves for all compounds. The permeability efficiency was further calculated according to manufacturer's instructions. For caffeine and amiloride, four replicates were performed; for PPanSH and CoA twelve replicates were performed. Caffeine and amiloride were obtained from Sigma.

For `Nc1ncnc2c1ncn2[C@@H]1O[C@H](COP(=O)(O)OP(=O)(O)O)[C@@H](O)[C@H]1O` [ADP], the “effect on conversion (degradation) of CoA into 4′-phosphopantetheine in serum” value (from here on “effect on conversion (degradation)”) [1] was “competitively blocked the conversion”.

In the case of `Nc1ncnc2c1ncn2[C@@H]1O[C@H](COP(=O)(O)OP(=O)(O)OP(=O)(O)O)[C@@H](O)[C@H]1O` [ATP], the “effect on conversion (degradation)” value [1] is reported as “competitively blocked the conversion”.

With `O=S(=O)(O)c1cc(N=C=S)ccc1C=Cc1ccc(N=C=S)cc1S(=O)(=O)O` [DIDS, 4,4′-diisothiocyanatostilbene-2,2′ disulphonic acid] the “effect on conversion (degradation)” value [1] was “able to inhibit”.

With `O=C(O)CN(CCN(CC(=O)O)CC(=O)O)CC(=O)O` [EDTA] the “effect on conversion (degradation)” value [1] was “completely prevented the formation of 4′-phosphopantetheine”.

In the case of `CC(C)(CO)[C@@H](O)C(=O)NCCCC(=O)O` [HoPan, Hopantenate], the eclosion rate [2] is reported as “decreased”, the larval lethality [2] is reported as “larval lethality was induced” and the “intracellular CoA levels” value ([3]; HEK293 cells, HPLC) is reported as “significantly reduced”. The “cell count of HEK293 cells” value [3] was “decreased cell count”, the “histone acetylation of HEK293 cells” value [3] was “impaired histone acetylation” and the “cell count of S2 cells” value [4] was “induced a decrease in cell count”. The “histone acetylation levels of S2 cells” value [4] was “induced a decrease”, the “intracellular CoA levels” value ([4]; S2 cells, HPLC) was “significantly reduced” and the “intracellular levels of 4′-phosphopantetheine” value ([4]; S2 cells, HPLC) was “reduced levels of 4′-phosphopantetheine”.

With `c1ccc([C@H]2CN3CCSC3=N2)cc1` [Levamisole, levamisole] the “effect on conversion (degradation)” value [1] was “only mild or no inhibition”.

In the case of `C=C(C)[C@H]1Cc2c(ccc3c2O[C@@H]2COc4cc(OC)c(OC)cc4[C@@H]2C3=O)O1` [Rotenone], the “cell line response to positive control” value [5] is reported as “generated expected profiles” and the “cell line response to positive control” value [6] is reported as “generated expected profiles of ETC inhibition”.

For `N=C(N)NC(=O)c1nc(Cl)c(N)nc1N` [amiloride], the “membrane permeation (PAMPA)” value [7] was “poorly permeating molecule”.

With `Cn1c(=O)c2c(ncn2C)n(C)c1=O` [caffeine] the “membrane permeation (PAMPA)” value [7] was “well-permeating compound”.

With `[F-].[Na+]` [sodium fluoride, Sodium fluoride] the “effect on conversion (degradation)” value [1] was “only mild or no inhibition”.

In the case of `Cc1ccc(C(=O)Nc2ccc(S(=O)(=O)O)c3cc(S(=O)(=O)O)cc(S(=O)(=O)O)c23)cc1NC(=O)c1cccc(NC(=O)Nc2cccc(C(=O)Nc3cc(C(=O)Nc4ccc(S(=O)(=O)O)c5cc(S(=O)(=O)O)cc(S(=O)(=O)O)c45)ccc3C)c2)c1` [suramin], the “effect on conversion (degradation)” value [1] is reported as “able to inhibit”.
